We go through 55 molecules from patent US8431704B2, “Quinoline or isoquinoline substituted P2X7 antagonists” (Janssen Pharmaceutica NV, priority 2008, dated 2013).

This assay deals with T1, hP2X7 (Homo sapiens, UniProt Q99572).
T1 construct: expressed in transfected cells; host or cells: 1321N1 astrocytoma cells
T1 sequence (Q99572 1-595): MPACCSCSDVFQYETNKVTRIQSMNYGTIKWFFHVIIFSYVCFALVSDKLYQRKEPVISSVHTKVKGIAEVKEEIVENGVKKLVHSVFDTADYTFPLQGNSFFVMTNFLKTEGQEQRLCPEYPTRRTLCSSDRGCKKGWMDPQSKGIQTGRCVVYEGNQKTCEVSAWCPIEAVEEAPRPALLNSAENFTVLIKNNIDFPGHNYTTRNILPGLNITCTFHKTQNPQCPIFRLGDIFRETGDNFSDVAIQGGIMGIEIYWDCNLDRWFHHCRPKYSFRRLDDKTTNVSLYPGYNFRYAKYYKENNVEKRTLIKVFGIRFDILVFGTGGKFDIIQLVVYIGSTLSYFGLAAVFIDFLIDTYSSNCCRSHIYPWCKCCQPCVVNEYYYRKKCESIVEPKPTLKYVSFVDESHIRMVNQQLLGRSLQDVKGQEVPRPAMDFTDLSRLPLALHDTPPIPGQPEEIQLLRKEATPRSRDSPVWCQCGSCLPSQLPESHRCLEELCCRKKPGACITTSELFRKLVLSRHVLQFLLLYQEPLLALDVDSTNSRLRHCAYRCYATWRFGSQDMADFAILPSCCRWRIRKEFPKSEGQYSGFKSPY
The assay is described as follows: P2X7 antagonism: ligand-induced Ca2+ flux in 1321N1 astrocytoma cells overexpressing hP2X7. Format: cell-based. The note with it: pIC50 = -log(IC50), read-out: hP2RX7pIC50 (mean pIC50 values) (converted). As to the method:
Extracellular binding of ATP to P2X7 that is expressed in the cell-membrane opens the ligand gated cation channel and allows Ca^2+ entry into the cell. This ligand-induced Ca^2+ flux was measured in 1321N1 astrocytoma cells overexpressing hP2X7 for the compounds of the present invention.
The calcium assay kit used (Molecular Devices, R8090), provides a Ca^2+ sensitive dye together with a quenching dye. However, no specifications are given by the manufacturer. The kit most likely consists of a membrane permeable acetoxymethyl (AM) ester of a fluorescent Ca^2+ indicator, such as fluo-4 or fluo-3. Upon cellular uptake, the AM esters get cleaved by esterases, liberating the Ca^2+-sensitive dye which can then bind calcium. The dyes have an absorption spectrum compatible with excitation at 488 nm by argon laser sources and a large fluorescence intensity increase in response to Ca^2+ binding without an accompanying spectral shift. Emission wavelength is in the range of 510-560 nm.
The fluorescence, and thus the changes in intracellular [Ca^2+] in the 1321N1 cells was monitored in time before and after addition of the agonist. The effect of the antagonist was measured as % control and as IC50.

`CC(C)N1CCN(c2ccc3c(C(=O)NCC(c4cnc(N(C)C)nc4)N4CCOCC4)cccc3n2)CC1` (stereo not shown) [Compound 199]: the IC50 is 0.407 µM. Next, `CC(C)Oc1ncc(C(CNC(=O)c2cccc3nc(NCC4CC4)ccc23)N2CCC(F)(F)CC2)cn1` (stereo not shown) [Compound 248]: 0.0331 µM. Next, `Cc1ncc(C(CNC(=O)c2cccc3nc(NCCCO)ccc23)N2CCC(F)(F)CC2)cn1` (stereo not shown) [Compound 132]: 0.0631 µM; `O=C(NCC(c1cnc(NC2CC2)nc1)N1CCC(F)(F)CC1)c1cccc2nc(NCC3CC3)ccc12` (stereo not shown) [Compound 263]: 0.0372 µM. As to `O=C(NCC(c1cnc(C(F)(F)F)nc1)N1CCCOCC1)c1cccc2nc(NCC3CCOCC3)ccc12` (stereo not shown) [Compound 94], the IC50 was 0.0813 µM. Then `O=C(NCC(c1ccc(C(F)(F)F)nc1)N1CCC(F)(F)CC1)c1cccc2ncccc12` (single isomer, unassigned) [Compound 10], with 0.0437 µM. Next, `CC1(C)CCN(c2ccc3c(C(=O)NCC(c4cnc(C(F)(F)F)nc4)N4CCOCC4)cccc3n2)CC1` (stereo not shown) [Compound 273]: 0.112 µM.

With `CC(C)N1CCN(c2ccc3c(C(=O)NCC(c4cncnc4)N4CCC(F)(F)CC4)cccc3n2)CC1` (stereo not shown) [Compound 297], the IC50 was 0.0324 µM. On to `O=C(NCC(c1cnc(C2CCCC2)nc1)N1CCC(F)(F)CC1)c1cccc2nc(NC3CC3)ccc12` (stereo not shown) [Compound 238], for which the IC50 is 0.0389 µM.

Consider `CC(C)N1CCN(c2ccc3c(C(=O)NCC(c4cnc(N(C)C)nc4)N4CCC(F)(F)CC4)cccc3n2)CC1` (stereo not shown) [Compound 209], for which the IC50 is 0.117 µM. Then `O=C(NCC(c1cnc(C(F)(F)F)nc1)N1CCCOCC1)c1cccc2nc(N3CCOCC3)ccc12` (stereo not shown) [Compound 87], with 0.0447 µM; and `O=C(NCC(c1cnc(OCC2CC2)nc1)N1CCC(F)(F)CC1)c1cccc2nc(NC3CC3)ccc12` (stereo not shown) [Compound 247], with 0.0209 µM; and `O=C(NCC(c1ccc(C(F)(F)F)nc1)N1CCC(F)(F)CC1)c1ccc2ccccc2n1` (stereo not shown) [Compound 14], with 0.178 µM. Next, `CC(C)Oc1ncc(C(CNC(=O)c2cccc3nc(N4CCOCC4)ccc23)N2CCC(F)(F)CC2)cn1` (stereo not shown) [Compound 235]: 0.0562 µM.

On to `CC(C)(C)OC(=O)N1CCN(c2ccc3c(C(=O)NCC(c4cnc(C(F)(F)F)nc4)N4CCCCCC4)cccc3n2)CC1` (stereo not shown) [Compound 107], for which the IC50 was 0.389 µM. Then `O=C(NCC(c1cnc(C(F)(F)F)nc1)N1CCC(F)(F)CC1)c1cccc2nc(N3CCC(O)C3)ccc12` (stereo not shown) [Compound 56], with 0.049 µM; and `O=C(NCC(c1cnc(N2CCOCC2)nc1)N1CCC(F)(F)CC1)c1cccc2nc(N3CCCC3)ccc12` (stereo not shown) [Compound 224], with 0.115 µM; and `CCN1CCN(c2ccc3c(C(=O)NCC(c4cnc(C)nc4)N4CCOCC4)cccc3n2)CC1` (stereo not shown) [Compound 116], with 0.186 µM. Turning to `O=C(NCC(c1ccc(C(F)(F)F)nc1)N1CCC(F)(F)CC1)c1cccc2ncccc12` (stereo not shown) [Compound 1], the IC50 is 0.0589 µM. Consider `CCOc1ncc(C(CNC(=O)c2cccc3nc(NC4CC4)ccc23)N2CCOCC2)cn1` (stereo not shown) [Compound 229], for which the IC50 was 0.0692 µM. Regarding `O=C(NCC(c1cnc(N2CCCC2)nc1)N1CCOCC1)c1cccc2nc(NCC3CC3)ccc12` (stereo not shown) [Compound 264], the IC50 is 0.0776 µM. Then `O=C(NC[C@@H](c1cnc(C(F)(F)F)nc1)N1CCC(F)(F)CC1)c1cccc2nc(NC3CC3)ccc12` [Compound 175], with 0.0447 µM; and `CN(C)c1ncc(C(CNC(=O)c2cccc3nc(NC4CC4)ccc23)N2CCOCC2)cn1` (stereo not shown) [Compound 233], with 0.148 µM. Then `O=C(NCC(c1cnc(C(F)(F)F)nc1)N1CCC(F)(F)CC1)c1cccc2nc(NCC3CCOCC3)ccc12` (stereo not shown) [Compound 146], with 0.0479 µM. Then `O=C(NCC(c1cnc(C(F)(F)F)nc1)N1CCCOCC1)c1cccc2nc(NCCCO)ccc12` (stereo not shown) [Compound 90], with 0.0871 µM; and `CC(=O)N1CCN(c2ncc(C(CNC(=O)c3cccc4nc(NCC5CC5)ccc34)N3CCC(F)(F)CC3)cn2)CC1` (stereo not shown) [Compound 240], with 0.0575 µM. With `CC(C)c1ncc(C(CNC(=O)c2cccc3nc(N4CCCC4)ccc23)N2CCOCC2)cn1` (stereo not shown) [Compound 210], the IC50 is 0.372 µM. As to `O=C(NCC(c1cnc(OC2CCC2)nc1)N1CCOCC1)c1cccc2nc(N3CCOCC3)ccc12` (stereo not shown) [Compound 313], the IC50 is 0.117 µM. Regarding `CCOc1ncc(C(CNC(=O)c2cccc3nc(NCC4CC4)ccc23)N2CCC(F)(F)CC2)cn1` (stereo not shown) [Compound 257], the IC50 is 0.0263 µM. Next, `O=C(NCC(c1cnc(N2CCCC2)nc1)N1CCOCC1)c1cccc2nc(N3CCCC3)ccc12` (stereo not shown) [Compound 219]: 0.126 µM; `CCOc1ncc(C(CNC(=O)c2cccc3nc(NC4CC4)ccc23)N2CCC(F)(F)CC2)cn1` (stereo not shown) [Compound 254]: 0.0295 µM. Turning to `O=C(NCC(c1cnc(N2CCOCC2)nc1)N1CCC(F)(F)CC1)c1cccc2nc(NC3CC3)ccc12` (stereo not shown) [Compound 205], the IC50 was 0.0646 µM. Next, `CN(C)c1ncc(C(CNC(=O)c2cccc3nc(N4CCOCC4)ccc23)N2CCC(F)(F)CC2)cn1` (stereo not shown) [Compound 188]: 0.0692 µM; `CC(C)N1CCN(c2ccc3c(C(=O)NCC(c4cnc(C(F)(F)F)nc4)N4CCOCC4)cccc3n2)CC1` (stereo not shown) [Compound 181]: 0.0933 µM; `O=C(NCC(c1cnc(OC2CCC2)nc1)N1CCC(F)(F)CC1)c1cccc2nc(NC3CC3)ccc12` (stereo not shown) [Compound 214]: 0.0339 µM. Next, `O=C(NCC(c1cnc(-c2ccccc2)nc1)N1CCC(F)(F)CC1)c1cccc2nc(NCC3CC3)ccc12` (stereo not shown) [Compound 237]: 0.0891 µM; `O=C(NCC(c1cncnc1)N1CCC(F)(F)CC1)c1cccc2nc(N3CCOCC3)ccc12` (stereo not shown) [Compound 268]: 0.0331 µM; `O=C(NCC(c1cnc(OCC2CC2)nc1)N1CCC(F)(F)CC1)c1cccc2nc(N3CCCC3)ccc12` (stereo not shown) [Compound 304]: 0.0282 µM. For the molecule `COc1ncc(C(CNC(=O)c2cccc3nc(NCC4CC4)ccc23)N2CCC(F)(F)CC2)cn1` (stereo not shown) [Compound 260], the IC50 is 0.0275 µM. Turning to `O=C(NCC(c1cnc(N2CCCC2)nc1)N1CCC(F)(F)CC1)c1cccc2nc(N3CCOCC3)ccc12` (stereo not shown) [Compound 176], the IC50 was 0.186 µM.

Take `O=C(NCC(c1cnc(C(F)(F)F)nc1)N1CCOCC1)c1cccc2nc(N3CCN(C4CC4)CC3)ccc12` (stereo not shown) [Compound 173]: the IC50 is 0.0708 µM. Next, `CC(C)N1CCN(c2ccc3c(C(=O)NCC(c4cnc(OC5CCC5)nc4)N4CCC(F)(F)CC4)cccc3n2)CC1` (stereo not shown) [Compound 300]: 0.0372 µM; `Nc1ncc(C(CNC(=O)c2cccc3nc(N4CCCC4)ccc23)N2CCC(F)(F)CC2)cn1` (stereo not shown) [Compound 226]: 0.162 µM; `CC(C)Oc1ncc(C(CNC(=O)c2cccc3nc(N4CCCC4)ccc23)N2CCOCC2)cn1` (stereo not shown) [Compound 284]: 0.0676 µM. Then `Nc1ncc(C(CNC(=O)c2cccc3nc(N4CCOCC4)ccc23)N2CCC(F)(F)CC2)cn1` (stereo not shown) [Compound 187], with 0.0871 µM; and `O=C(NCC(c1cnc(C(F)(F)F)nc1)N1CCCC(F)(F)C1)c1cccc2ncccc12` (stereo not shown) [Compound 66], with 0.0182 µM. Then `CCCc1cc(C(=O)NCC(c2ccc(C(F)(F)F)nc2)N2CCC(F)(F)CC2)c2ccccc2n1` (stereo not shown) [Compound 18], with 0.055 µM; and `CN(C)c1ncc(C(CNC(=O)c2cccc3nc(N4CCCC4)ccc23)N2CCC(F)(F)CC2)cn1` (stereo not shown) [Compound 206], with 0.105 µM.

`CC(C)OC1CCN(c2ccc3c(C(=O)NCC(c4cnc(C(F)(F)F)nc4)N4CCOCC4)cccc3n2)CC1` (stereo not shown) [Compound 277]: the IC50 is 0.0468 µM. Next, `O=C(NCC(c1ccc(C(F)(F)F)nc1)N1CCC(F)(F)CC1)c1cccc2cnccc12` (stereo not shown) [Compound 16]: 0.224 µM; `O=C(NCC(c1cnc(OCC2CC2)nc1)N1CCC(F)(F)CC1)c1cccc2nc(N3CCOCC3)ccc12` (stereo not shown) [Compound 246]: 0.0324 µM; `COC1CCN(c2ccc3c(C(=O)NCC(c4cnc(C(F)(F)F)nc4)N4CCOCC4)cccc3n2)CC1` (stereo not shown) [Compound 161]: 0.0468 µM. As to `CCOc1ncc(C(CNC(=O)c2cccc3nc(N4CCN(C(C)C)CC4)ccc23)N2CCOCC2)cn1` (stereo not shown) [Compound 310], the IC50 was 0.0562 µM. In the case of `O=C(NCC(c1cnc(C(F)(F)F)nc1)N1CCOCC1)c1cccc2nc(N3CCCOCC3)ccc12` (stereo not shown) [Compound 178], the IC50 was 0.0912 µM. Next, `O=C(NCC(c1cnc(C(F)(F)F)nc1)N1CCCC(F)(F)C1)c1cccc2nc(N3CCNCC3)ccc12` (stereo not shown) [Compound 127]: 0.0141 µM.
